Assay results as given in patent US20140073694A1, “CYSTAMINE ANALOGUES FOR THE TREATMENT OF PARKINSON'S DISEASE” (UNIVERSITE LAVAL, priority 2011, published 2014).
“Also recorded” adds a separate entry of the source.

System: MPTP-treated mice
Experiment: Subacute MPTP mouse model of Parkinson's disease: nigral DAergic markers (TH, Nurr1, DAT)
Assay type: in vivo, C57BL/6 mice
Method: Young adult (9-week old, 25 grams) male C57BL/6 mice were purchased from Charles River Laboratories (Montréal, QC, Canada). Animals were housed 4 per cage under standard conditions with free access to food and water, randomized and handled under the same conditions by one investigator. All experiments were performed in accordance with the Canadian Council on Animal Care and were approved by the Institutional Committee of the Centre Hospitalier de l'Université Laval (CHUL, Québec, Canada). Throughout the experiment, the health status of all mice included in the study was closely monitored for weight loss or other signs of health-related issues. All efforts were made to minimize animal pain and discomfort.
Mice received 7 i.p. injections, twice on the first 2 days of the experimental protocol at an interval of 12 hrs and once a day on 3 subsequent days, of either saline 0.9% or MPTP-HCl (20 mg/kg free base; Sigma, St. Louis, Mo.) dissolved in saline 0.9% prepared fresh (Tremblay et al., 2006; Gibrat et al., 2007; Gibrat et al., 2010).
Beneficial effects of cystamine in parkinsonian mice (cystamine dihydrochloride, Sigma, St. Louis, Mo.) were evaluated with a dose of 10 mg/kg dissolved in sterile saline 0.9% and prepared fresh for daily i.p. injection 1 hr before MPTP administration. The choice of dose and regime of administration was based on our previous findings (Tremblay et al., 2006; Gibrat et al., 2010). The first injection of cystamine was administered either 1) 2 days before the start of MPTP injections (pre-treatment) or 2) 24 hours after the last MPTP dose (post-treatment), and the treatment continued daily for 14 days post injury.
The effects of cystamine on the MPTP toxicity were studied in the following experimental groups: Group I, Saline+Saline; Group II, Saline+Cystamine post-treatment; Group III; Saline+Cystamine pre-treatment; Group IV, MPTP+Saline; Group V, MPTP+Cystamine post-treatment, Group VI, MPTP+Cystamine pre-treatment. In total, 96 mice (n=16 per group) were utilized, monitored daily for weight variation, and ultimately sacrificed by perfusion 24 hrs after the last cystamine (or vehicle) injection.
Experiment 1. All mice were subjected to intracardiac perfusion with RNAse free 0.1 M phosphate-buffered saline (PBS). After intracardiac perfusion, brains were collected and the two hemispheres were separated. The left hemisphere was post-fixed in 4% paraformaldehyde (PFA) for 48 hrs and transferred to 20% sucrose in 0.1 M PBS for cryoprotection. Coronal brain sections of 25 μm thickness were cut onto a freezing microtome (Leica Microsystems, Montreal, QC) and serially collected in anti-freeze solution (monophosphate sodium monobasic 0.2 M, monophosphate sodium dibasic 0.2 M, ethylene glycol 30%, glycerol 20%) and kept at −20° C. until use. Sections from the left hemisphere were utilized for additional immunohistochemistry and in situ hybridization protocols. The right hemispheres were snap-frozen in 2-methyl-butane and then stored at −80° C. until cryostat dissection for HPLC and western-blot (WB) analyses.
For assessment of DAergic neuronal-loss, immunohistochemistry against the enzyme TH was performed as previously described (Tremblay et al., 2006; Gibrat et al., 2009). Briefly, free-floating sections, after several washes and blocking preincubation, were incubated overnight at 4° C. with a rabbit anti-TH (Pel-Freez, Rogers, Ark.; 1:5000). Sections were then incubated for 1 hr at room temperature (RT) in a solution containing biotinylated goat anti-rabbit IgG (Vector Laboratories, Burlington, ON; 1:1500) and subsequently placed in a solution containing avidin-biotin peroxidase complex (ABC Elite kit; Vector Laboratories, Burlington, ON) for 1 hr at RT. Finally, the reaction was developed in 3,3′ diaminobenzidine tetrahydrochloride (DAB) solution (Sigma, St. Louis, Mo.) and 0.1% of 30% hydrogen peroxide (Sigma, St. Louis, Mo.) at RT. […]

[1] = post-treatment: 10 mg/kg i.p. daily started 24 h after last MPTP dose, 14 days
[2] = pre-treatment: 10 mg/kg i.p. daily started 2 days before MPTP

NCCSSCCN [cystamine, Cystamine]
DAT mRNA / DAT mRNA expressing cells in the SNpc [1]: significant recovery; also recorded: higher level; also recorded: comparable number of DAT-positive cells as saline treated animals | Nurr1 mRNA levels in the SNpc [1]: significant recovery; also recorded: normal levels of Nurr1 mRNA; also recorded: higher level of Nurr1 | TH-positive and Nissl-positive neurons in the SNpc, stereological count [1]: significant recovery of the number of nigral DAergic neurons; also recorded: significantly greater number of TH-positive and Nissl-positive neurons | Nurr1 mRNA levels in the SNpc [2]: normalization of Nurr1 mRNA levels | SNpc neurons expressing DAT [2]: normalization; also recorded: comparable number of DAT-positive cells as saline treated animals | TH-immunoreactive (TH-positive) neurons in the SNpc, stereological count (pre-treatment: 10 mg/kg i.p. daily started 2 days before MPTP, continued 14 days post injury): increase density of TH-immunoreactive cells in the SNpc
